Active and inactive are the calls of the source. No cut-off for these calls is given here.
Tests used:
[1] = molecular target: T1, Peptidyl-prolyl cis-trans isomerase NIMA-interacting 1 (Homo sapiens, UniProt Q13526); assay: Inhibition of Pin1 by PIn1 PPIase assay
[2] = tested on: PC-3; assay: Growth inhibition of serum starved human PC3 cells; type: functional
[3] = molecular target: T1, Peptidyl-prolyl cis-trans isomerase NIMA-interacting 1; assay: Binding affinity to Pin1 by isothermal calorimetry
[4] = molecular target: Peptidyl-prolyl cis-trans isomerase A (Homo sapiens) (UniProt P62937); assay: Inhibition of cyclophilin A
[5] = molecular target: T1, Peptidyl-prolyl cis-trans isomerase NIMA-interacting 1; assay: Inhibition of Pin1 in serum starved human PC3 cells assessed as reduction in insulin-induced p7)S6 kinase phosphorylation; type: cell-based, PC-3
[6] = tested on: PC-3; assay: Inhibition of cyclin E1 expression in serum starved human PC3 cells; type: functional, cell-based
[7] = molecular target: T1, Peptidyl-prolyl cis-trans isomerase NIMA-interacting 1; assay: Inhibition of Pin1-mediated cyclin D1 expression in serum starved human PC3 cells; type: cell-based, PC-3
[8] = molecular target: Peptidyl-prolyl cis-trans isomerase FKBP1A (Homo sapiens) (UniProt P62942); assay: Inhibition of FKBP12
Sequence of Peptidyl-prolyl cis-trans isomerase FKBP1A (Homo sapiens) (P62942 whole entry): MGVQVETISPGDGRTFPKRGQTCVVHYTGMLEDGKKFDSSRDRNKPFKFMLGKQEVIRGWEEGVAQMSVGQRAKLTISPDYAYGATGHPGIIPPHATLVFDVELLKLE

T1 sequence (Q13526 whole entry): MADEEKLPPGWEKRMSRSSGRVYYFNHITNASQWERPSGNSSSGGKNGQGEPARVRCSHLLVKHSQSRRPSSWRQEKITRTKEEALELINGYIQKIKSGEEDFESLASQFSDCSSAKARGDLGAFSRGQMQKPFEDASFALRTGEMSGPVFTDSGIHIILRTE
Sequence of Peptidyl-prolyl cis-trans isomerase A (Homo sapiens) (P62937 whole entry, looked up): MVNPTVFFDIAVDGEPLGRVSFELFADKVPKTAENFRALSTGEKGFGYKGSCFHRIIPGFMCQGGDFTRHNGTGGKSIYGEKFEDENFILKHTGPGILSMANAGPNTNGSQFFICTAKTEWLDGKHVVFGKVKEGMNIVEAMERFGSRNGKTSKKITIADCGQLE

| IC50 [1] [µM] | GI50 [2] [µM] | SMILES | further results |
| --- | --- | --- | --- |
| > 1000 | – | COc1ccccc1-c1ccc(C(=O)O)o1 | – |
| – | > 200 | CN(CC(N)=O)C(=O)c1nc(-c2ccccc2)[nH]c1C(=O)O | – |
| 23 | – | Cc1nc(-c2cccc(C(F)(F)F)c2)[nH]c1C(=O)O | – |
| – | 56 | CN(Cc1ccccc1)C(=O)c1[nH]c(-c2cccc(Cl)c2)nc1C(=O)O | – |
| 1.4 | 18 | O=C(O)c1[nH]c(-c2cccc(Cl)c2)nc1C(=O)N(Cc1ccccc1)Cc1ccccc1 | Kd [3]: 1.4 µM |
| 34 | – | Cc1cccc(-c2nc(C(=O)O)c(C)[nH]2)c1 | – |
| – | > 200 | O=C(O)c1[nH]c(-c2ccccc2)nc1C(=O)N1CCOCC1 | – |
| 0.32 | – | O=C(O)c1nc(-c2cccc(F)c2)[nH]c1C(=O)O | Kd [3]: 0.52 µM |
| 21 | > 200 | O=C(O)c1[nH]c(-c2cccc(Cl)c2)nc1C(=O)N1CCOCC1 | – |
| 9.4 | – | CN(CC(=O)O)C(=O)c1nc(-c2ccccc2)[nH]c1C(=O)O | – |
| 80 | – | CNC(=O)c1nc(-c2ccccc2)[nH]c1C(=O)O | – |
| 270 | – | COc1cccc(-c2nc(C)c(C(=O)O)[nH]2)c1 | – |
| 220 | – | O=C(O)c1nc(-c2ccccc2)[nH]c1C(=O)NCc1ccccc1 | – |
| 4 | 21 | O=C(O)c1nc(-c2ccccc2)[nH]c1C(=O)N(Cc1ccccc1)Cc1ccccc1 | – |
| 0.83 | 13 | O=C(O)c1[nH]c(-c2ccccc2)nc1C(=O)N(CCc1ccccc1)Cc1ccccc1 | inhibition [4]: inactive; EC50 [5]: 30 µM; inhibition [6]: inactive; EC50 [7]: 10 µM; inhibition [8]: inactive |
| 140 | – | CCNC(=O)c1nc(-c2ccccc2)[nH]c1C(=O)O | – |
| 19 | – | Cc1nc(-c2cccc(C#N)c2)[nH]c1C(=O)O | – |
| 0.52 | > 80 | NC(=O)CN(Cc1nc2ccccc2s1)C(=O)c1nc(-c2ccccc2)[nH]c1C(=O)O | – |
| 8 | > 200 | CCOC(=O)CN(Cc1ccccc1)C(=O)c1nc(-c2ccccc2)[nH]c1C(=O)O | – |
| 31 | > 200 | CN(Cc1ccccc1)C(=O)c1nc(-c2ccccc2)[nH]c1C(=O)O | – |
| 1.46 | – | O=C(O)c1nc(-c2ccccc2)[nH]c1C(=O)O | – |

Source: ChEMBL document CHEMBL1268960, “Discovery of cell-active phenyl-imidazole Pin1 inhibitors by structure-guided fragment evolution” (Bioorg Med Chem Lett, 2010)
